Numbers after ± are expanded uncertainties.
Tests used:
[1] = for mass density: 298.15 K, 101.33 kPa, Liquid, Vibrating tube method; for Normal melting temperature: Crystal
[2] = refractive index (Na D-line) (dimensionless); conditions: 298.15 K; 101.33 kPa; Liquid; Standard Abbe refractometry
[3] = refractive index (Na D-line) (dimensionless); xn = mol fraction of the nth substance listed; conditions: 298.15 K, 101 kPa, Liquid, Standard Abbe refractometry
[4] = xn = mol fraction of the nth substance listed; conditions: 298.15 K, 101 kPa, Liquid, Vibrating tube method

With `CCCCCCCCCCO` [decan-1-ol] the mass density [1] was 826.59 ± 3.8 kg/m3, the Normal melting temperature [1] was 7.04 ± 0.31 °C and the refractive index [2] was 1.43541 ± 0.001.
Work on `CCCCCCCCCCO` [decan-1-ol] + CCCCCCCCO yielded a refractive index ([3]; x2 = 0.05) of 1.435 ± 0.0008, a refractive index ([3]; x2 = 0.0996) of 1.4346 ± 0.0008 and a refractive index ([3]; x2 = 0.1996) of 1.434 ± 0.0008. It also gave a refractive index ([3]; x2 = 0.2997) of 1.4333 ± 0.0008, a refractive index ([3]; x2 = 0.4005) of 1.4325 ± 0.0008 and a refractive index ([3]; x2 = 0.5006) of 1.4318 ± 0.0008. The refractive index ([3]; x2 = 0.6005) was 1.431 ± 0.0008, the refractive index ([3]; x2 = 0.7006) was 1.4301 ± 0.0008 and the refractive index ([3]; x2 = 0.8002) was 1.4293 ± 0.0008. It also gave a refractive index ([3]; x2 = 0.9) of 1.4284 ± 0.0008 and a refractive index ([3]; x2 = 0.9507) of 1.4279 ± 0.0008.
With `CCCCCCCCO` [octan-1-ol] the mass density [1] was 821.76 ± 3.7 kg/m3, the Normal melting temperature [1] was -15.30 ± 0.31 °C and the refractive index [2] was 1.42754 ± 0.001.
In the case of `CCCCCCCCN(CCCCCCCC)CCCCCCCC` [trioctylamine], the mass density [1] is reported as 807.46 ± 3.6 kg/m3, the Normal melting temperature [1] is reported as -34.42 ± 0.31 °C and the refractive index [2] is reported as 1.44758 ± 0.001.
Compound `CCCCCCCCN(CCCCCCCC)CCCCCCCC` [trioctylamine] + CCCCCCCCCCO has a mass density ([4]; x1 = 0.0504) of 825.4 ± 0.7 kg/m3, a mass density ([4]; x1 = 0.0998) of 824 ± 0.7 kg/m3 and a mass density ([4]; x1 = 0.2002) of 821.6 ± 0.6 kg/m3. The mass density ([4]; x1 = 0.3) was 819.3 ± 0.6 kg/m3, the mass density ([4]; x1 = 0.4002) was 817.3 ± 0.6 kg/m3 and the mass density ([4]; x1 = 0.501) was 815.4 ± 0.6 kg/m3. The mass density ([4]; x1 = 0.6008) was 813.8 ± 0.6 kg/m3, the mass density ([4]; x1 = 0.7007) was 812.3 ± 0.6 kg/m3 and the mass density ([4]; x1 = 0.8014) was 810.7 ± 0.6 kg/m3. It also gave a mass density ([4]; x1 = 0.9022) of 809.2 ± 0.6 kg/m3, a mass density ([4]; x1 = 0.9522) of 808.6 ± 0.6 kg/m3 and a refractive index ([3]; x1 = 0.0504) of 1.437 ± 0.0008. It also gave a refractive index ([3]; x1 = 0.0998) of 1.4384 ± 0.0008, a refractive index ([3]; x1 = 0.2002) of 1.4406 ± 0.0008 and a refractive index ([3]; x1 = 0.3) of 1.4424 ± 0.0008. It also gave a refractive index ([3]; x1 = 0.4002) of 1.4437 ± 0.0008, a refractive index ([3]; x1 = 0.501) of 1.4448 ± 0.0008 and a refractive index ([3]; x1 = 0.6008) of 1.4457 ± 0.0008. The refractive index ([3]; x1 = 0.7007) was 1.4464 ± 0.0008, the refractive index ([3]; x1 = 0.8014) was 1.4469 ± 0.0008 and the refractive index ([3]; x1 = 0.9022) was 1.4473 ± 0.0008. For the same compound, the refractive index ([3]; x1 = 0.9522) was 1.4475 ± 0.0008.
In the case of `CCCCCCCCN(CCCCCCCC)CCCCCCCC` [trioctylamine] + CCCCCCCCO, the mass density ([4]; x1 = 0.0497) is reported as 820.8 ± 0.6 kg/m3, the mass density ([4]; x1 = 0.1) is reported as 819.7 ± 0.6 kg/m3 and the mass density ([4]; x1 = 0.2) is reported as 817.8 ± 0.6 kg/m3. It also gave a mass density ([4]; x1 = 0.3004) of 816 ± 0.6 kg/m3, a mass density ([4]; x1 = 0.4001) of 814.5 ± 0.6 kg/m3 and a mass density ([4]; x1 = 0.4997) of 813.1 ± 0.6 kg/m3. The mass density ([4]; x1 = 0.6012) was 811.9 ± 0.6 kg/m3, the mass density ([4]; x1 = 0.701) was 810.7 ± 0.6 kg/m3 and the mass density ([4]; x1 = 0.8002) was 809.7 ± 0.6 kg/m3. It also gave a mass density ([4]; x1 = 0.8962) of 808.7 ± 0.6 kg/m3, a mass density ([4]; x1 = 0.9496) of 808.1 ± 0.6 kg/m3 and a refractive index ([3]; x1 = 0.0497) of 1.4311 ± 0.0008. It also gave a refractive index ([3]; x1 = 0.1) of 1.433 ± 0.0008, a refractive index ([3]; x1 = 0.2) of 1.4359 ± 0.0008 and a refractive index ([3]; x1 = 0.3004) of 1.4389 ± 0.0008. For the same compound, the refractive index ([3]; x1 = 0.4001) was 1.4415 ± 0.0008, the refractive index ([3]; x1 = 0.4997) was 1.4432 ± 0.0008 and the refractive index ([3]; x1 = 0.6012) was 1.4445 ± 0.0008. It also gave a refractive index ([3]; x1 = 0.701) of 1.4453 ± 0.0008, a refractive index ([3]; x1 = 0.8002) of 1.4461 ± 0.0008 and a refractive index ([3]; x1 = 0.8962) of 1.447 ± 0.0008. It also gave a refractive index ([3]; x1 = 0.9496) of 1.4474 ± 0.0008.

From the NIST ThermoML archive (doi:10.1021/je900586f)
